The record followed here is US9278914B2, “SARMs and method of use thereof” (UNIVERSITY OF TENNESSEE RESEARCH FOUNDATION, priority 2004, dated 2016).

Experiment [1] concerns castrated (ORX) male Sprague-Dawley rats. The experiment can be described thus: Anabolic and androgenic activity in castrated (ORX) male rats, daily oral gavage for fourteen days. The experiment is classed as in vivo, rat. The settings on record: for Anabolic muscle/prostate ratio: castrated rats; for Levator ani muscle weight, maximally stimulated: maximal stimulation, comparator. The protocol: Male Sprague-Dawley rats weighing approximately 200 g were purchased from Harlan Bioproducts for Science (Indianapolis, Ind.).
The test article for this study was weighed and dissolved in 10% DMSO (Fisher) diluted with PEG 300 (Acros Organics, N.J.) for preparation of the appropriate dosage concentrations. […] Animals were randomly assigned to one of seven groups consisting of 4 to 5 animals per group. Control groups (intact and ORX) were administered vehicle daily. […] Where appropriate, animals were castrated on day one of the study.
(§1) In addition, ventral prostate, seminal vesicles, and levator ani muscle were removed, individually weighed, normalized to body weight, and expressed as a percentage of intact control. Student's T-test was used to compare individual dose groups to the intact control group. Significance was defined a priori as a P-value<0.05. Ventral prostate and seminal vesicle weights were evaluated as a measure of androgenic activity, whereas levator ani muscle weight was evaluated as a measure of anabolic activity. Blood was collected from the abdominal aorta, centrifuged, and sera were frozen at −80° C. prior to determination of serum hormone levels. Serum luteinizing hormone (LH) and follicle stimulating hormone (FSH) concentrations were determined.
(§2) The test article for this study was weighed and dissolved in 10% DMSO (Fisher) diluted with PEG 300 (Acros Organics, N.J.) for preparation of the appropriate dosage concentrations. […] Animals were randomly assigned to one of seven groups consisting of 4 to 5 animals per group. Control groups (intact and ORX) were administered vehicle daily. Compound of formula S-XXIII was administered via oral gavage at doses of 0.01, 0.03, 0.1, 0.3, 0.75, and 1 mg/day to both intact and ORX groups. Where appropriate, animals were castrated on day one of the study. Treatment with compound of formula S-XXIII began nine days post ORX and was administered daily via oral gavage for fourteen days.
Male Sprague-Dawley rats weighing approximately 200 g were purchased from Harlan Bioproducts for Science (Indianapolis, Ind.). […] Regenerative effects of the compound of formula S-XXIV in chronically (9 days) ORX rats was similarly evaluated.
as §2, with “S-XXIV” for “S-XXIII”
Male Sprague-Dawley rats weighing approximately 200 g were purchased from Harlan Bioproducts for Science (Indianapolis, Ind.). […] Anabolic and androgenic activity of compound of formula S-XXV in intact animals was evaluated, and the dose response in acutely orchidectomized (ORX) animals was evaluated as well.
The compound was weighed and dissolved in 10% DMSO (Fisher) diluted with PEG 300 (Acros Organics, N.J.) for preparation of the appropriate dosage concentrations.

Experiment [2] deals with intact male Sprague-Dawley rats. The experiment can be described thus: Anabolic and androgenic activity in intact male rats, daily oral gavage. The experiment is classed as in vivo, rat. The protocol: The test article for this study was weighed and dissolved in 10% DMSO (Fisher) diluted with PEG 300 (Acros Organics, N.J.) for preparation of the appropriate dosage concentrations. The animals were housed in groups of 2 to 3 animals per cage. Animals were randomly assigned to one of seven groups consisting of 4 to 5 animals per group. Control groups (intact and ORX) were administered vehicle daily. […] Where appropriate, animals were castrated on day one of the study. Treatment with compound of formula S-II began nine days post ORX and was administered daily via oral gavage for fourteen days.
as §1, with “The animals were sacrificed under anesthesia (ketamine/xyalzine, 87:13 mg/kg) and body weights were recorded. In” for “In”
(§3) The test article for this study was weighed and dissolved in 10% DMSO (Fisher) diluted with PEG 300 (Acros Organics, N.J.) for preparation of the appropriate dosage concentrations. The animals were housed in groups of 2 to 3 animals per cage. Animals were randomly assigned to one of seven groups consisting of 4 to 5 animals per group. Control groups (intact and ORX) were administered vehicle daily. Compound of formula S-XXIII was administered via oral gavage at doses of 0.01, 0.03, 0.1, 0.3, 0.75, and 1 mg/day to both intact and ORX groups. Where appropriate, animals were castrated on day one of the study. Treatment with compound of formula S-XXIII began nine days post ORX and was administered daily via oral gavage for fourteen days.
as §3, with “S-XXIV” for “S-XXIII”, “study.” for “study. Treatment with compound of formula S-XXIII began nine days post ORX and was administered daily via oral gavage for fourteen days.”

The mark [3] stands for this setting: ORX rats, nonlinear regression, sigmoid Emax model.

A value given as a limit tells only on which side of the number the result lay.

As for `C[C@](O)(COc1ccc(C#N)cc1)C(=O)Nc1ccc(C#N)c(C(F)(F)F)c1` [S-XXV], the “Dose able to fully restore/maintain levator ani muscle weight” value in experiment [1] (ORX rats) is on record as more than 0.1 mg/day. In experiment [1] (ORX rats), this molecule gave an ED50 levator ani of 0.02 ± 0.01 mg/day. Besides, in experiment [1] (ORX rats), the ED50 prostate amounted to 0.09 ± 0.07 mg/day. This molecule also came in with an ED50 seminal vesicles in experiment [1] (ORX rats) of 0.17 ± 0.05 mg/day. For the same molecule, the “Levator ani muscle weight” value in experiment [1] (ORX rats, 0.01 mg/day oral) is on record as 59%±6%; in experiment [1] (ORX rats, 0.03 mg/day oral), 85%±9%; in experiment [1] (ORX rats, 0.1 mg/day oral), 112%±10%; in experiment [1] (ORX rats, 0.3 mg/day oral), 122%±16%; in experiment [1] (ORX rats, 0.75 mg/day oral), 127±12 % of intact controls; in experiment [1] (ORX rats, 1 mg/day oral) it was 129.66±2 % of intact controls. For the same molecule, the “Levator ani muscle weight” value was 120%±12% in experiment [2] (0.01 mg/day oral); 116%±7% in experiment [2] (0.03 mg/day oral); 128%±7% in experiment [2] (0.1 mg/day oral); 134%±7% in experiment [2] (0.3 mg/day oral); 125%±9% in experiment [2] (0.75 mg/day oral); 146%±17% in experiment [2] (1 mg/day oral). The Prostate weight in experiment [1] (ORX rats, 0.01 mg/day oral) is on record as 8%±2%; in experiment [1] (ORX rats, 0.03 mg/day oral), 20%±5%; in experiment [1] (ORX rats, 0.1 mg/day oral) it was 51%±19%; in experiment [1] (ORX rats, 0.3 mg/day oral), 56%±9%; in experiment [1] (ORX rats, 0.75 mg/day oral) it was 80%±28%; in experiment [1] (ORX rats, 1 mg/day oral), 74±12.5 % of intact controls. The Prostate weight in experiment [2] (0.01 mg/day oral) is reported as 111%±21%; in experiment [2] (0.03 mg/day oral), 88%±15%; in experiment [2] (0.1 mg/day oral), 77%±17%; in experiment [2] (0.3 mg/day oral), 71%±16%; in experiment [2] (0.75 mg/day oral), 71%±10%; in experiment [2] (1 mg/day oral), 87%±13%. Besides, the Seminal vesicle weight is 12%±4% in experiment [1] (ORX rats, 0.01 mg/day oral); 17%±5% in experiment [1] (ORX rats, 0.03 mg/day oral); 35%±10% in experiment [1] (ORX rats, 0.1 mg/day oral); 61%±15% in experiment [1] (ORX rats, 0.3 mg/day oral); 70%±14% in experiment [1] (ORX rats, 0.75 mg/day oral); 80%±6% in experiment [1] (ORX rats, 1 mg/day oral). The Seminal vesicle weight is recorded as 94%±9% in experiment [2] (0.01 mg/day oral); 77%±11% in experiment [2] (0.03 mg/day oral); 80%±9% in experiment [2] (0.1 mg/day oral); 73%±12% in experiment [2] (0.3 mg/day oral); 77%±10% in experiment [2] (0.75 mg/day oral); 88%±14% in experiment [2] (1 mg/day oral). Besides, in experiment [1] (setting [3]), the Emax levator ani was 131%±2%. Besides, the Emax prostate in experiment [1] (setting [3]) was 83%±25%. In experiment [1] (setting [3]), the Emax seminal vesicles is listed as 85%±11%.

As for `C[C@](O)(COc1ccc(C#N)cc1)C(=O)Nc1ccc(C#N)c(Cl)c1` [S-XXIV, (S)—N-(3-chloro-4-cyanophenyl)-3-(4-cyanophenoxy)-2-hydroxy-2-methylpropanamide], in experiment [1] (ORX rats), the “Dose restoring 100% of levator ani muscle weight” value is on record as 0.1 mg/day. For the same molecule, the “Prostate weight restored at the dose restoring 100% levator ani” value in experiment [1] (ORX rats) came to 43±15%. Further, the “Levator ani muscle weight” value in experiment [1] (ORX rats, 0.01 mg/day oral) is recorded as 52%±8%; in experiment [1] (ORX rats, 0.03 mg/day oral) it was 67%±9%; in experiment [1] (ORX rats, 0.1 mg/day oral) it was 98%±10%; in experiment [1] (ORX rats, 0.3 mg/day oral), 103%±12%; in experiment [1] (ORX rats, 0.75 mg/day oral) it was 105%±12%; in experiment [2] (0.01 mg/day oral), 107%±5%. In addition, the “Levator ani muscle weight” value is recorded as 103%±7% in experiment [2] (0.03 mg/day oral); 97%±7% in experiment [2] (0.1 mg/day oral); 103%±5% in experiment [2] (0.3 mg/day oral); 118%±7% in experiment [2] (0.75 mg/day oral); 118%±7% in experiment [2] (1 mg/day oral). In addition, the Prostate weight in experiment [1] (ORX rats, 0.01 mg/day oral) is on record as 17%±6%; in experiment [1] (ORX rats, 0.03 mg/day oral), 31%±3%; in experiment [1] (ORX rats, 0.1 mg/day oral), 43%±15%; in experiment [1] (ORX rats, 0.3 mg/day oral), 54%±17%; in experiment [1] (ORX rats, 0.75 mg/day oral), 58%±10%; in experiment [2] (0.01 mg/day oral), 103%±10%. Moreover, the Prostate weight in experiment [2] (0.03 mg/day oral) was 99%±10%; in experiment [2] (0.1 mg/day oral), 58%±10%; in experiment [2] (0.3 mg/day oral), 58%±15%; in experiment [2] (0.75 mg/day oral) it was 65%±20%; in experiment [2] (1 mg/day oral) it was 77%±23%. Moreover, the Seminal vesicle weight is given as 10%±3% in experiment [1] (ORX rats, 0.01 mg/day oral); 13%±4% in experiment [1] (ORX rats, 0.03 mg/day oral); 21%±6% in experiment [1] (ORX rats, 0.1 mg/day oral); 43%±8% in experiment [1] (ORX rats, 0.3 mg/day oral); 51%±9% in experiment [1] (ORX rats, 0.75 mg/day oral); 69%±14% in experiment [1] (ORX rats, 1 mg/day oral). Further, the Anabolic muscle/prostate ratio in experiment [1] (0.01 mg/day) worked out at 3.02; in experiment [1] (0.03 mg/day), 2.13; in experiment [1] (0.1 mg/day), 2.27; in experiment [1] (0.3 mg/day) it was 1.90; in experiment [1] (0.75 mg/day) it was 1.83; in experiment [1] (1 mg/day), 1.51.

For the molecule `CC(=O)Nc1ccc(OC[C@](C)(O)C(=O)Nc2ccc([N+](=O)[O-])c(C(F)(F)F)c2)cc1` [S-4, S-3-(4-acetylaminophenoxy)-2-hydroxy-2-methyl-N-(4-nitro-3-trifluoromethylphenyl) propionamide, reference compound], in experiment [1], the “Levator ani muscle weight, maximally stimulated” value is reported as 101%.

With `CCC(=O)O[C@H]1CC[C@H]2[C@@H]3CCC4=CC(=O)CC[C@]4(C)[C@H]3CC[C@]12C` [Testosterone propionate, reference compound], the “Levator ani muscle weight, maximally stimulated” value in experiment [1] turned out to be 104%.
